Source: ChEMBL document CHEMBL4359892, “Discovery of novel indolylarylsulfones as potent HIV-1 NNRTIs via structure-guided scaffold morphing” (Eur J Med Chem, 2019)

Key:
[1] = system: Human immunodeficiency virus 1; assay: Antiviral activity against HIV-1 3B infected in human MT4 cells assessed as reduction in virus-induced cytopathic effect incubated for 5 days by MTT assay; type: functional, organism-based; settings: Human immunodeficiency virus 1, 3B, MT4, 120 h
[2] = system: Human immunodeficiency virus 1; assay: Antiviral activity against drug resistant HIV-1 RES056 harboring reverse transcriptase K103N/Y181C double mutant infected in human MT4 cells assessed as reduction in virus-induced cytopathic effect incubated for 5 days by MTT assay; type: functional, organism-based; settings: Human immunodeficiency virus 1, RES056, MT4, 120 h
[3] = Cytotoxicity against human MT4 cells assessed as reduction in cell viability incubated for 5 days by MTT assay; type: cell-based
[4] = Selectivity index, ratio of CC50 for human MT4 cells to EC50 for antiviral activity against HIV IIIB; type: toxicity; settings: read-out: Ratio CC50/EC50
[5] = Selectivity index, ratio of CC50 for human MT4 cells to EC50 for antiviral activity against HIV RES056; type: toxicity; settings: read-out: Ratio CC50/EC50
[6] = system: Human immunodeficiency virus 1; assay: Antiviral activity against drug resistant HIV-1 harboring reverse transcriptase E138K mutant infected in human MT4 cells assessed as reduction in virus-induced cytopathic effect incubated for 5 days by MTT assay; type: functional, organism-based; settings: Human immunodeficiency virus 1, MT4, 120 h
[7] = system: Human immunodeficiency virus 1; assay: Antiviral activity against drug resistant HIV-1 harboring reverse transcriptase L100I mutant infected in human MT4 cells assessed as reduction in virus-induced cytopathic effect incubated for 5 days by MTT assay; type: functional, organism-based; settings: Human immunodeficiency virus 1, MT4, 120 h
[8] = system: Human immunodeficiency virus 1; assay: Antiviral activity against drug resistant HIV-1 harboring reverse transcriptase K103N mutant infected in human MT4 cells assessed as reduction in virus-induced cytopathic effect incubated for 5 days by MTT assay; type: functional, organism-based; settings: Human immunodeficiency virus 1, MT4, 120 h
[9] = system: Human immunodeficiency virus 1; assay: Antiviral activity against drug resistant HIV-1 harboring reverse transcriptase Y181C mutant infected in human MT4 cells assessed as reduction in virus-induced cytopathic effect incubated for 5 days by MTT assay; type: functional, organism-based; settings: Human immunodeficiency virus 1, MT4, 120 h
[10] = system: Human immunodeficiency virus 1; assay: Antiviral activity against drug resistant HIV-1 harboring reverse transcriptase Y188L mutant infected in human MT4 cells assessed as reduction in virus-induced cytopathic effect incubated for 5 days by MTT assay; type: functional, organism-based; settings: Human immunodeficiency virus 1, MT4, 120 h
[11] = system: Human immunodeficiency virus 1; assay: Antiviral activity against drug resistant HIV-1 harboring reverse transcriptase F227L/V106A double mutant infected in human MT4 cells assessed as reduction in virus-induced cytopathic effect incubated for 5 days by MTT assay; type: functional, organism-based; settings: Human immunodeficiency virus 1, MT4, 120 h
[12] = Acute toxicity in Kunming mouse assessed as effect on animal death at 1000 mg/kg, ig administered as single dose and observed every day for 1 week; type: organism-based; settings: in vivo, po, 168 h
[13] = Acute toxicity in Kunming mouse assessed as effect on lethargy at 1000 mg/kg, ig administered as single dose and observed every day for 1 week; type: organism-based; settings: in vivo, po, 168 h
[14] = Acute toxicity in Kunming mouse assessed as effect on clonic convulsion at 1000 mg/kg, ig administered as single dose and observed every day for 1 week; type: organism-based; settings: in vivo, po, 168 h
[15] = Acute toxicity in Kunming mouse assessed as effect on ruffled fur at 1000 mg/kg, ig administered as single dose and observed every day for 1 week; type: organism-based; settings: in vivo, po, 168 h
[16] = Acute toxicity in Kunming mouse assessed as effect on anorexia at 1000 mg/kg, ig administered as single dose and observed every day for 1 week; type: organism-based; settings: in vivo, po, 168 h
[17] = Acute toxicity in Kunming mouse assessed as effect on body weight gain at 1000 mg/kg, ig administered as single dose and observed every day for 1 week; type: organism-based; settings: in vivo, po, 168 h
[18] = Sub-acute toxicity in Kunming mouse assessed as effect on animal death at 50 mg/kg, po administered once every other day for 14 days; type: organism-based; settings: in vivo, 336 h
[19] = Sub-acute toxicity in Kunming mouse assessed as effect on lethargy at 50 mg/kg, po administered once every other day for 14 days; type: organism-based; settings: in vivo, 336 h
[20] = Sub-acute toxicity in Kunming mouse assessed as effect on clonic convulsion at 50 mg/kg, po administered once every other day for 14 days; type: organism-based; settings: in vivo, 336 h
[21] = Sub-acute toxicity in Kunming mouse assessed as effect on ruffled fur at 50 mg/kg, po administered once every other day for 14 days; type: organism-based; settings: in vivo, 336 h
[22] = Sub-acute toxicity in Kunming mouse assessed as effect on anorexia at 50 mg/kg, po administered once every other day for 14 days; type: organism-based; settings: in vivo, 336 h
[23] = Sub-acute toxicity in Kunming mouse assessed as increase in body weight at 50 mg/kg, po administered once every other day for 14 days; type: organism-based; settings: in vivo, 336 h
[24] = Sub-acute toxicity in Kunming mouse assessed as heart damage at 50 mg/kg, po administered once every other day for 14 days measured on day 14 by HE-staining based assay; type: organism-based; settings: in vivo, 336 h
[25] = Sub-acute toxicity in Kunming mouse assessed as liver damage at 50 mg/kg, po administered once every other day for 14 days measured on day 14 by HE-staining based assay; type: organism-based; settings: in vivo, 336 h
[26] = Sub-acute toxicity in Kunming mouse assessed as spleen damage at 50 mg/kg, po administered once every other day for 14 days measured on day 14 by HE-staining based assay; type: organism-based; settings: in vivo, 336 h
[27] = Sub-acute toxicity in Kunming mouse assessed as lungs damage at 50 mg/kg, po administered once every other day for 14 days measured on day 14 by HE-staining based assay; type: organism-based; settings: in vivo, 336 h
[28] = Sub-acute toxicity in Kunming mouse assessed as kidney damage at 50 mg/kg, po administered once every other day for 14 days measured on day 14 by HE-staining based assay; type: organism-based; settings: in vivo, 336 h
[29] = Acute toxicity in Kunming mouse assessed as effect on animal growth at 1000 mg/kg, ig administered as single dose and observed every day for 1 week; type: organism-based; settings: in vivo, po, 168 h
[30] = Sub-acute toxicity in Kunming mouse assessed as effect on animal growth at 50 mg/kg, po administered once every other day for 14 days; type: organism-based; settings: in vivo, 336 h

Question: For Cc1cc(C)cc(S(=O)(=O)c2c(C(=O)N[C@H]3CCN(CC(N)=O)C3)[nH]c3ccc(Cl)cc23)c1, which EC50 [1] is on record?
Answer: 9.8 nM

Question: What about the EC50 [2] of the same molecule?
Answer: > 28100 nM

Question: What about the CC50 at 120 h [3] of the same molecule?
Answer: 28100 nM

Question: And the selectivity ratio [4]?
Answer: 2880

Question: And the selectivity ratio [5]?
Answer: < 1

Question: What about the EC50 [6] of the same molecule?
Answer: 14 nM

Question: What about the EC50 [7] of the same molecule?
Answer: 11 nM

Question: What about the EC50 [8] of the same molecule?
Answer: 25 nM

Question: And the EC50 [9]?
Answer: 96 nM

Question: What about the EC50 [10] of the same molecule?
Answer: 310 nM

Question: What about the EC50 [11] of the same molecule?
Answer: 94 nM

Question: What about the Activity [12] of the same molecule?
Answer: Non-Toxic

Question: What about the Activity [13] of the same molecule?
Answer: Non-Toxic

Question: What about the Activity [14] of the same molecule?
Answer: Non-Toxic

Question: What about the Activity [15] of the same molecule?
Answer: Non-Toxic

Question: And the Activity [16]?
Answer: Non-Toxic

Question: What about the Activity [17] of the same molecule?
Answer: Non-Toxic

Question: And the Activity [18]?
Answer: Non-Toxic

Question: And the Activity [19]?
Answer: Non-Toxic

Question: And the Activity [20]?
Answer: Non-Toxic

Question: What about the Activity [21] of the same molecule?
Answer: Non-Toxic

Question: What about the Activity [22] of the same molecule?
Answer: Non-Toxic

Question: And the Activity [23]?
Answer: Non-Toxic

Question: What about the Activity [24] of the same molecule?
Answer: Non-Toxic

Question: And the Activity [25]?
Answer: Non-Toxic

Question: And the Activity [26]?
Answer: Non-Toxic

Question: And the Activity [27]?
Answer: Non-Toxic

Question: What about the Activity [28] of the same molecule?
Answer: Non-Toxic

Question: What about the Activity [29] of the same molecule?
Answer: Non-Toxic

Question: What about the Activity [30] of the same molecule?
Answer: Non-Toxic
